Test results taken from patent publication US10488418B2, “Fluorescence assay for intestinal permeability” (THE REGENTS OF THE UNIVERSITY OF CALIFORNIA, priority 2014, dated 2019).
Like-named read-outs stand apart in the source and are kept apart here.

Tests used:
[1] = human, in vivo
Description: (§2) Intestinal permeability test in humans: Subjects consumed 0.5-1.0 L water the night before and in the morning about 3 hour prior to sample collection. The first morning urine was voided. No food or other beverages were consumed prior to the test. Permeability probes were ingested after baseline urine collection. […] Test subjects were permitted to drink water or coffee as desired. Light snacks were permitted after the fourth hour. Urine volumes were recorded and 50 mL was retained for analysis.
(§3) Sample collection: Freshly collected urine (50 ml) was first centrifuged 2500 RCF at 4° C. for 10 minutes.
(§4) Supernatants were pipetted 40 μL/well in duplicate into plates (#3694, Corning, USA). Fluorescence (Exc/Em 450/580 nm) was read on a plate reader (Infinite M200Pro, Tecan, Switzerland). Concentration was calculated as mg/mL and multiplied by total urine volume in mL, giving total mg in urine. The mg in urine/mg ingested×100 yielded % ingested.
(§5) The SPE column was cleaned with MeOH and H2O between runs. […] Data was corrected for a 9% loss. After SPE, samples were directed to the various assays.
(§6) Viologen method for lactulose and mannitol permeability in humans: Ready-made assay 96 well plates were prepared (#3694, Corning, 199 USA). A 4× premix buffer was prepared (0.1 M sodium phosphate, 0.1 M HEPES, 0.04% Triton X-100, pH 7.4). To this was added HPTS (16 μM) and quencher (1.6 mM 4,4′oBBV or 2.0 mM 4,4′oMBV), each 4 times above final concentration. The different viologen concentrations were chosen to achieve similar extents of quenching in the absence of sugar (about 20% of free fluorophore) while preserving a strong signal to noise (S/N). Blank wells were given 10 μl 4× premix buffer with neither HPTS nor viologen. Some wells received 16 μM HPTS without quencher to determine maximum possible fluorescence. All other wells received 10 μl of the complete 4× premix. Those premixes containing 4,4′oBBV were continuously vortexed because the mixture is a suspension. Plates were sealed with plate tape and stored at 4° C. until use.
(§7) Upon running an assay, 30 μl of standards or samples were pipetted into wells. Final concentrations were 4 μM HPTS and 400 μM 4,4′oBBV or 500 μM 4,4′oMBV. Urine samples were placed in both blank wells (for individual sample blanking) and wells containing complete 4× premix. Plates were put on a shaker for 1 hr, RT. During this time, sugars interacted with the HPTS-viologen complex, liberating HPTS into solution. Plates were then centrifuged at 2500 RCF for 10 minutes at room temperature to pull down remaining HPTS-quencher particulate matter. Plate tape was removed and fluorescence read on a plate reader (Tecan M-200 Infinite, gain 70, 404/535 nm). The height was adjusted to read from the top of the solution (18 mm). […] A Marquardt 4-parameter curve fit was used. Sugar concentrations were calculated as g/mL and multiplied by total urine volume in mL, giving total amount of urine in grams. Values were corrected for percentage recovery from the C18 SPE step. The g in urine/g ingested×100 yielded % ingested. Lactulose measurements were confirmed by enzyme assay. Mannitol measurements were confirmed by HPLC-Evaporative Light Scattering Detector (HPLC-ELSD) using a C8 pre-column and Prevail Carbohydrate ES 5μ 250×4.6 mm column (Grace Davison 224 Discovery Sciences, Ill., USA) with 80:20 MeCN/H2O.

[2] = Viologen based fluorescence assay for sugars in urine with 4,4′oBBV and HPTS; design: species or system human
Source text: (§1) A Marquardt 4-parameter curve fit was used. […] The g in urine/g ingested×100 yielded % ingested. Lactulose measurements were confirmed by enzyme assay.
Statistics: The lower limit of detection (LLOD) was defined as the analyte concentration in the urine sample at which fluorescence intensity in the assay was 3 standard deviations above the mean baseline fluorescence. Similarly, the lower limit of quantification (LLOQ) was defined as 10 standard deviations above the mean baseline fluorescence. Coefficient of variation percent (CV %) was determined by averaging sets of samples each measured in 4 wells. Results are given as mean±SEM.

[3] = Quenching of HPTS fluorescence by boronic acid viologen in absence of sugar
Description: as §1
The term “Initial quench” as used herein refers to HPTS fluorescence in presence of quencher and absence of sugar (maximum achievable quench) as a percent of maximum possible fluorescence with 4 μM free HPTS in absence of any quencher. The term “LLOD” as used herein refers to analyte concentration in original urine sample (as opposed to final concentration in the assay) at which the fluorescence signal equals or exceeds 3 standard deviations above mean assay noise level. The term “LLOQ” as used herein refers to analyte concentration in original urine sample at which the fluorescence signal equals or exceeds 10 standard deviations above mean assay noise level. The term “range” as used herein refers to urine concentrations found in healthy volunteers before transforming data to % ingested. The term “Mean±SEM” as used herein refers to standard mean plus or minus standard error of mean as generally understood in medical science. The term “CV %” as used herein refers to intra-assay coefficient of variation for samples.

[4] = Intestinal permeability test in humans (urine excretion of ingested probes)
Description: as §2, §3, §4, §5, §6, §7

[5] = viologen assay system, viologen not specified

With `Cc1cc2nc3c(=O)[nH]c(=O)nc-3n(C[C@H](O)[C@H](O)[C@H](O)CO)c2cc1C` [Riboflavin, riboflavin] the “Typical values for humans (urine concentration)” value (“Typical values for humans” below) [1] was 0.01 to 0.1 mM and the “time of return to baseline in urine after ingestion” value [1] was “about 6 hours”.
For `O=C(CO)[C@@H](O[C@H]1O[C@H](CO)[C@@H](O)[C@H](O)[C@H]1O)[C@H](O)[C@H](O)CO` [turanose], the “fluorescence as percent of fructose” value [2, 5] was about 30% and the “fluorescence as percent of the lactulose fluorescence” value [2, 5] was about 20%.
In the case of `OC[C@H]1O[C@@H](O[C@H]2[C@H](O)[C@@H](O)C(O)O[C@@H]2CO)[C@H](O)[C@@H](O)[C@H]1O` (stereo partly shown) [lactose], the “response of 4,4′oBBV to sugar” value ([2]; 10 mM sugar) is reported as “essentially no response”.
With `OB(O)c1ccccc1C[n+]1ccc(-c2cc[n+](Cc3ccccc3B(O)O)cc2)cc1` [4,4′oBBV, 1,1′-bis(2-boronobenzyl)-4,4′-bipyridinium] the Relative selectivity ([2]; 4,4′oBBV) was “lactulose>fructose>galactose”.
With `OB(O)c1ccccc1C[n+]1ccc(-c2cc[n+](Cc3ccccc3)cc2)cc1` [4,4′oMBV, 1-(2-boronobenzyl)-1′-benzyl-4,4′-bipyridinium] the “Initial Quench % Max” value ([3]; HPTS fluorescence with quencher and no sugar, as percent of 4 μM free HPTS, final 400 μM 4,4′oBBV or 500 μM 4,4′oMBV) was 16% and the “higher concentration required than 4,4′oBBV to achieve the same extent of quenching” value ([3]; HPTS quenching, 0 μM sugar) was “about 20%”.
For `OC[C@H]1O[C@@](CO)(O[C@H]2O[C@H](CO)[C@@H](O)[C@H](O)[C@H]2O)[C@@H](O)[C@@H]1O` [sucrose], the “interference with the viologen based method” value [2] was “Neither sucrose nor sucralose interfere” and the fluorescence signal [2, 5] was “no signal”.
For `OC[C@@H](O)[C@@H](O)[C@H](O)[C@H](O)CO` [Mannitol, mannitol], the “time of return to baseline in urine after ingestion” value [1] was “about 6 hours”, the “Typical values for humans” value ([4]; human urine) was 1 to 10 mM and the “RANGE (urine concentrations found in healthy volunteers)” value ([4]; human urine after oral 50 mg riboflavin, 5 g mannitol or 10 g lactulose, mean±SEM, sugars measured with 4,4′oBBV) was 3929 ± 972 µM.
For `OC[C@H]1O[C@H](O[C@]2(CCl)O[C@H](CCl)[C@@H](O)[C@@H]2O)[C@H](O)[C@@H](O)[C@H]1Cl` [sucralose], the “interference with the viologen based method” value [2] was “Neither sucrose nor sucralose interfere”.
For `OC[C@H]1O[C@@H](O[C@@H]2[C@@H](CO)OC(O)(CO)[C@H]2O)[C@H](O)[C@@H](O)[C@H]1O` (mixture of isomers) [Lactulose, lactulose], the “Typical values for humans” value [1] was 0.2 to 1.5 mM and the “signal stronger than fructose” value [2, 5] was about 20%.
